≈ marks a conversion by molar mass, not a printed value.
How the values were obtained:
[1] = test system: Caco-2 cells; test: MTT anticancer assay; type: cell-based; conditions: for SI Caco-2: IC50 Wi-38 / IC50 Caco-2
From the text: (§1) MTT assay: the normal cell line (Wi-38), colon cancer (Caco-2), lung cancer (A549), and breast cancer (MDA) cell lines were sourced from ATCC, USA. All different cell lines were cultivated and preserved in DMEM medium (SERANA, Germany), accompanied by 10% FBS (Gibco, USA) and 1% Pen/Strep solution (Lonza, USA). The newly prepared derivatives at various doses were considered for their anticancer activity and their safety on normal cells, applying MTT (3-[4, 5-dimethylthiazol]-2, 5-diphenyltetrazolium bromide) methods.[22] At first, all normal and cancer cell lines (1.0 ×10^4) were inoculated in 4 antiseptic 96-well tissue culture microplates and incubated for 24 h in a CO2 incubator. After cell attachments, the prepared derivatives were added to both normal Wi-38 cells at diverse concentrations of (6.25–200 μg mL^−1, 2-fold) and cancer cells at different concentrations of (3.125–100 μg mL^−1, 2-fold) in triplicate and incubated for another 48 h at 37 °C in a CO2 incubator with an adjusted concentration of 5%. After that, the treated cells were cleaned three times with PBS to remove debris and dead cells. Next, 200 μL of 0.5 mg mL^−1 MTT dye solution in PBS was mixed in each well, and the cells were further kept for 3 h at 37 °C in a 5% CO2 incubator. After that, MTT was removed and 200 μL of DMSO was added to each well. The optical density (OD) was recorded at 570 nm via a microplate reader (B.M.G. LabTech, Germany). Basic cells (untreated) were utilized as negative control cells, and 5-fluorouracil (5-FU) was included as a standard chemotherapy drug. The qualified cell viability (%) was evaluated as in equation (eqn (1)):1 Relative cell viability (%) = […] A1 is the OD of the examined derivative, A0 is the OD of the standard, and AU is the OD of the untreated cells.
(§2) Anticancer activity assay: the anticancer effect of each derivative was assessed by evaluating the half-maximal inhibitory concentration (IC50) value via the GraphPad Prism 7.0 software. However, SI (selective index) values of each derivative were estimated by splitting the IC50 value of healthy cells by the IC50 value of malignant cells, as previously reported.[23] The effects of the created derivatives on the morphology of MDA cells were evaluated at IC50 doses and captured by phase-contrast microscopy (Olympus, Germany) in comparison to untreated control cells.

[2] = test system: A549 cells; test: MTT anticancer assay; type: cell-based, human; conditions: 48 h; for IC50 A549: lung carcinoma cells
From the text: as §1, §2

[3] = test system: MDA cells; test: MTT anticancer assay; type: cell-based, human; conditions: 48 h; for IC50 MDA: breast carcinoma cells
From the text: as §1, §2

[4] = test system: Wi-38 cells; test: MTT cytotoxicity assay, normal cells; type: cell-based; conditions: 48 h; for IC50 Wi-38: normal human lung fibroblast cells
From the text: as §1, §2

[5] = test system: A549 cells; test: Wound healing scratch (anti-migration) assay; type: cell-based, human; conditions: IC50 doses, 48 h
Method: To assess the anti-migration inhibition capability of newly synthesized derivatives, a wound healing technique was employed. A549 cells were planted in 12-well plates and kept alive at 37 °C until they achieved 80–90% fluency. The cell monolayers were smashed with a sterile tip and exposed to the prepared derivatives at IC50 doses. At 0 and 48 h of treatment, the wound closure area was captured and calculated by imaging analysis with the Cell-Sens software (Olympus, Japan).

[6] = test system: S. mutans; test: Agar-well diffusion of synthesized compounds; type: cell-based, Streptococcus mutans ATCC 25175; conditions: 100 μL of 10 mg mL^−1 per well, 24 h, 37 °C
From the text: (§3) The antimicrobial activity of the prepared compounds was estimated through an agar-well diffusion method as adapted from the modified Kirby–Bauer protocol.[24] In this test, microbial pathogens were applied, including Staphylococcus aureus ATCC 25923 (S. aureus), Streptococcus mutans ATCC 25175 (S. mutans), Bacillus cereus ATCC 19637 (B. cereus), Bacillus aureus ATCC 25923 (B. aureus), Bacillus epidermidis ATCC 14990 (B. epidermidis), and Bacillus subtilis ATCC 11774 (B. subtilis) as Gram-positive bacteria, and Pseudomonas aeruginosa ATCC 27853 (P. aeruginosa), Klebsiella pneumonia ATCC 13883 (K. pneumonia), and Salmonella typhimurium ATCC 14028 (S. typhimurium), Salmonella pneumoniae ATCC 10031(S. pneumoniae), Escherichia coli ATCC 10536 (E. coli), and Salmonella paratyphi ATCC 9150 (S. paratyphi) as Gram-negative bacteria. Additionally, Candida albicans (ATCC 10231), Candida krusei ATCC 6258 (C. krusei), Candida glabrata ATCC 66032 (C. glabrata), andCandida parapsilosis ATCC 22019 (C. parapsilosis) were applied as models of unicellular fungi. The pre-inoculation cultures of the pathogens were prepared on Muller–Hinton broth and cultivated for 24 h at 37 °C. The agar-well test was prepared on Muller–Hinton agar with 100 μL of each pathogen pre-culture (0.5 McFarland conc.) and uniformly distributed on the plate surface. Under aseptic conditions, six wells were created on the agar surface using a sterile corkborer (9 mm). To each well, 100 μL of the prepared compound (10 mg mL^−1) was separately inserted into each plate. All plates were incubated for 24 h at 37 °C; the established inhibition zones (Halo-zones) surrounding the wells indicated positive antimicrobial activity and were stated as the radius of the inhibition zone (mm).

[7] = test system: S. aureus; test: Agar-well diffusion of synthesized compounds; type: cell-based, Staphylococcus aureus ATCC 25923; conditions: 100 μL of 10 mg mL^−1 per well, 24 h, 37 °C
From the text: as §3, with “Under aseptic conditions, six wells were created on the agar surface using a sterile corkborer (9 mm). To each well, 100 μL of the prepared compound (10 mg mL^−1) was separately inserted into each plate. All plates were incubated for 24 h at 37 °C; the established inhibition zones (Halo-zones) surrounding the wells indicated positive antimicrobial activity and were stated as the radius of the inhibition zone (mm).” left out

[8] = colon carcinoma cells, MTT, 48 h

Row | SMILES | IC50 ([1]; Homo sapiens, Caco-2, colon carcinoma cells, MTT, 48 h) [µg/mL] | SI Caco-2 [1] | IC50 ([2]; Homo sapiens, A549, lung carcinoma cells) [µg/mL] | IC50 ([3]; Homo sapiens, Breast carcinoma cell) [µg/mL] | IC50 ([4]; WI-38, normal human lung fibroblast cells) [µg/mL] | IC50 Caco-2 [1, 8] [µg/mL] | IC50 A549 [2] [µg/mL] | IC50 MDA [3] [µg/mL] | IC50 Wi-38 [4] [µg/mL] | Migration inhibition [5] [%] | Inhibition zone [6] | Inhibition zone [7]
1 | O=c1[nH]cc(F)c(=O)[nH]1 [Compound 5-FU, 5-fluorouracil, reference compound] | 6.13 ± 0.28 (≈ 47.1 µM) | 0.85 ± 0.03 | 5.74 ± 0.24 (≈ 44.1 µM) | 5.89 ± 0.19 (≈ 45.3 µM) | 5.23 ± 0.18 (≈ 40.2 µM) | – | – | – | – | – | – | –
2 | Nc1ccc(Nc2ccnc3cc(Cl)ccc23)cc1 [Compound A1] | – | 4.59 ± 0.37 | – | – | – | 38.23 ± 1.64 (≈ 142 µM) | 32.05 ± 2.18 (≈ 119 µM) | 14.91 ± 0.96 (≈ 55.3 µM) | 175.3 ± 14.08 (≈ 650 µM) | – | – | –
3 | Nc1ccc(Nc2c3ccccc3nc3ccccc23)cc1 [Compound B1] | – | 8.07 ± 0.59 | – | – | – | 24.15 ± 1.76 (≈ 84.6 µM) | 16.93 ± 1.88 (≈ 59.3 µM) | 8.92 ± 0.67 (≈ 31.3 µM) | 195.0 ± 14.41 (≈ 683 µM) | 74.63 | about 13 mm | about 13 mm
